# From patent US7601717B2, “Pterin analogs” (BioMarin Pharmaceutical Inc., priority 2008, dated 2009)
# Where a name gives a salt, the structure may show the parent alone. Read-outs that look alike come from different tables or passages of the source.
# What was measured:
# [1] = Pharmacokinetics and bioavailability, single intravenous or oral doses, partial Latin square crossover; assay type: in vivo, male cynomolgus monkeys; details: for bioavailability: male, cynomolgus monkey, plasma, po; for Absolute Bioavailability of the BH4 Analog: dihydrochloride; for Val-BH4/(BH4 + BH2 + B), analog remaining in systemic circulation / Val-BH4/BH4, analog remaining in systemic circulation: determined from AUC0-t; for Val-BH4/total biopterin, analog remaining in systemic circulation: from AUC0-t, total biopterin adjusted to BH4 analog
# Procedure: This study was to determine the pharmacokinetics and relative bioavailability of BH4 when given as parent BH4 or an analog of BH4 to male cynomolgus monkeys as single intravenous or oral doses in a partial Latin square crossover design.
# Six, male, non-naïve cynomolgus monkeys were fasted overnight prior to dosing through approximately 4 hours postdose. Individual doses were calculated based on body weights recorded on each day of dose administration. Five experimental groups of monkeys were evaluated using a partial Latin square crossover design: Group 1-2 mg/kg BH4 by IV; Group 2-40 mg/kg BH4 by oral gavage; Group 3-2 mg/kg BH4 analog by IV; Group 4-5 mg/kg BH4 analog by oral gavage; Group 5-20 mg/kg BH4 analog by oral gavage. The doses of BH4 analog were prepared as mg/kg equivalents of BH4 (calculated using BH4 and BH4 analog 2HCl molecular weights). The partial Latin square crossover design was used to minimize dose sequence effect on interanimal variability for statistical purposes. The monkeys received their respective dose of BH4 intravenously (2 mL/kg, dissolved in 100 μM ascorbic acid and 5% mannitol in sterile water for injection, SWFI), Example 5 intravenously (2 mL/kg, dissolved in 100 μM ascorbic acid and 5% mannitol in citrate buffer, pH 3) or BH4 or Example 5 by oral gavage (4 mL/kg, dissolved in 100 μM ascorbic acid in SWFI). Prior to use, all intravenous dose formulations were filtered into the final dosing container using a 0.22-micron syringe filter (Millex GS or GV; Millipore).
# For intravenous administration, blood (approximately 1 mL) was collected from each animal predose and at 0.083, 0.25, 0.5, 1, 2, 3, 4, 6, 8, 12, 18, and 24 hours postdose. For oral administration, blood (approximately 1 mL) was collected from each animal predose and at 0.25, 0.5, 1, 2, 3, 4, 6, 8, 12, 18, and 24 hours postdose. Blood was collected into tubes containing K2-EDTA anticoagulant, which was maintained in chilled condition, and centrifuged to obtain plasma. Centrifugation began within 30 minutes of collection. Three, 100-μL aliquots of each plasma sample were promptly transferred following centrifugation into individual tubes containing 0.1% (w/v) dithioerythritol (DTE) for storage. Once the plasma aliquot was added, each tube was vortexed briefly to mix then immediately placed on dry ice.
# [2] = system: Spontaneously Hypertensive rats (SHR); test: Anti-hypertensive effect, tail-cuff systolic blood pressure in SHR; assay type: in vivo, rat; details: SHR; for decrease in systolic blood pressure (SBP): 3 weeks
# Procedure: This study was to determine if the BH4 analogs have a similar hypotensive effect and to determine the steady state pharmacokinetics (PK) profiles of plasma BH4 concentrations.
# Male Wistar-Kyoto (WKY) rats and SHR rats (Elevage Janvier, France, 7 weeks old) were housed seven days prior to the beginning of experiments with free access to standard chow and water and maintained on an inversed 12 h dark/light cycle (10:00/22:00). After a one week acclimation period, the animals were trained to the tail-cuff system during one week (3 sessions). The following week, two baseline measurements of blood pressure were performed.
# The rats (10 weeks old) then received respective treatments of water, vehicle, 2, 10, or 30 mg/kg/day of BH4 analog (Example 5, Val-BH4) or 100 mg/kg/day BH4 by oral gavage (8 mL/kg, dissolved in 100 μM ascorbic acid) performed once a day during 21 days of treatment. The doses of BH4 analog were prepared as mg/kg equivalents of BH4 (calculated using BH4 and BH4 analog 2HCl molecular weights). Body weight was monitored 3 times per week and the most recent body weight was used to adjust drug and vehicle daily intake. Seven experimental groups of rats were evaluated: Group 1—normotensive WKY rats and water gavage; Group 2—hypertensive SHR rats and water gavage; Group 3—hypertensive SHR rats and vehicle gavage; Group 4—hypertensive SHR rats and BH4 100 mg/kg/day gavage; Group 5—hypertensive SHR rats and BH4 analog 2 mg/kg/day gavage; Group 6—hypertensive SHR rats and BH4 analog 10 mg/kg/day gavage; Group 7—hypertensive SHR rats and 30 mg/kg/day BH4 analog gavage. To account for animal loss or animal disqualification during experimental handling, 10 rats were used in each group, with the expectation to obtain interpretable results for at least 8. Systolic blood pressure (SBP) and heart rate (HR) were measured twice weekly during the 3-week treatment period.
# Systolic blood pressure (SBP) and heart rate (HR) were measured using the tail-cuff method, twice before the beginning of the treatment and twice weekly during the 3 week treatment period (6 measurements during the treatment period). Rats were placed in a plastic restraint and warmed to […]. A pneumatic pulse sensor was attached to the tail. After cuff inflation, SBP was measured and HR was determined by counting pulse numbers per minute. Data for each rat was taken an average of at least 4 stable readings. At least 10 cuff inflations were performed for each BP measurement.
# [3] = Pharmacokinetics and bioavailability, single intravenous or oral doses, partial Latin square crossover; assay type: in vivo, male cynomolgus monkeys; details: male, cynomolgus monkey, plasma; intravenous; title 5 mg/kg, text 2 mg/kg; n=6
smiles,measurement,setting,value
"CC(C)[C@H](N)C(=O)O[C@@H](C)[C@H](O)[C@H]1CNc2nc(N)[nH]c(=O)c2N1 [Example 5, 2-Amino-3-methyl-butyric acid 2-(2-amino-4-oxo-3,4,5,6,7,8-hexahydro-pteridin-6-yl)-2-hydroxy-1-methyl-ethyl ester dihydrochloride]",bioavailability,"[1]; 5 mg/kg, oral 5 mg/kg (BH4 equivalents), n=6, read-out: Absolute Bioavailability of the BH4 Analog",36%
same,bioavailability,"[1]; 20 mg/kg, oral 20 mg/kg (BH4 equivalents), n=6, read-out: Absolute Bioavailability of the BH4 Analog",33%
same,bioavailability,"[1]; 20 mg/kg, oral 5 and 20 mg/kg, read-out: absolute bioavailability of Val-BH4 present in plasma",33 to 36%
same,Absolute Bioavailability of the BH4 Analog,"[1]; oral 5 mg/kg (BH4 equivalents), n=6, 5 mg/kg",36.2 (26.3) %
same,absorption and distribution of the analog in plasma,"[1]; oral 5 mg/kg, FIG. 10",absorbed quickly and was rapidly distributed by 4 hr
same,"Val-BH4/(BH4 + BH2 + B), analog remaining in systemic circulation","[1]; oral 5 mg/kg, n=6",36.4 (16.0) %
same,"Val-BH4/BH4, analog remaining in systemic circulation","[1]; oral 5 mg/kg, n=6",56.3 (25.2) %
same,"Val-BH4/total biopterin, analog remaining in systemic circulation","[1]; oral 5 mg/kg, n=6",23.5 (5.6) %
same,Absolute Bioavailability of the BH4 Analog,"[1]; oral 20 mg/kg (BH4 equivalents), n=6, 20 mg/kg",33.2 (29.2) %
same,"Val-BH4/(BH4 + BH2 + B), analog remaining in systemic circulation","[1]; oral 20 mg/kg, n=6",51.6 (11.6) %
same,"Val-BH4/BH4, analog remaining in systemic circulation","[1]; oral 20 mg/kg, n=6",81.0 (18.1) %
same,"Val-BH4/total biopterin, analog remaining in systemic circulation","[1]; oral 20 mg/kg, n=6",40.7 (11.1) %
same,percent of Val-BH4 remaining in systemic circulation,"[1]; oral 5 and 20 mg/kg, based on total biopterin adjusted to Val-BH4",greater than 23.5±5.6%
same,decrease in systolic blood pressure (SBP),[2]; 2 mg/kg/day oral gavage (BH4 equivalents),6.8 mmHg
same,decrease in SBP compared with BH4 100 mg/kg,"[2]; 10 mg/kg/day during 3 weeks, FIG. 31",decreased SBP to the same extent as a 10-fold greater dose of BH4
same,decrease in systolic blood pressure (SBP),[2]; 10 mg/kg/day oral gavage (BH4 equivalents),13.9 mmHg
same,decrease in systolic blood pressure (SBP),[2]; 30 mg/kg/day oral gavage (BH4 equivalents),13.7 mmHg
same,AUC(0-inf),[3],5.24 µM·h
same,AUC(0-t),[3],4.17 µM·h
same,Cmax,[3],13.1 µM
same,Tmax,[3],4.8 min
